Reference: patent US8952024B2, “Herbicidal pyrimidone derivatives” (E I du Pont de Nemours and Company, priority 2009, dated 2015)

Assays:
Assay type in all cases: in vivo
[1] = system: chickweed (Stellaria media); experiment: Test B postemergence plant response; settings: Postemergence
Outline: (§1)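 Plants grown in peat/vermiculite medium were sprayed postemergence at 2–18 cm height (1- to 4-leaf stage). After 13–15 days in the greenhouse, response was rated visually against untreated controls on a 0–100 scale (0 no effect, 100 complete control).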

[2] = system: winter barley (Hordeum vulgare); experiment: Test B postemergence plant response; settings: Postemergence
Outline: as §1

[3] = system: windgrass (Apera spica-venti); experiment: Test B postemergence plant response; settings: Postemergence
Outline: as §1

[4] = system: canarygrass (Phalaris minor); experiment: Test B postemergence plant response; settings: Postemergence
Outline: as §1

[5] = system: wheat (Triticum aestivum); experiment: Test A pre-/postemergence plant response; settings: for Wheat plant response rating: visual injury, 0 to 100 scale (0 no effect, 100 complete control), approx. ten days
Outline: (§2)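 Approximately ten days after concurrent pre- and postemergence spraying in a greenhouse, plants were compared with untreated controls and rated visually for injury, 0 = no effect to 100 = complete control. Preemergence spray was directed onto loam/sand soil; postemergence targeted 1–2 leaf seedlings.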

[6] = system: velvetleaf (Abutilon theophrasti); experiment: Test A pre-/postemergence plant response; settings: for Velvetleaf plant response rating: visual injury, 0 to 100 scale (0 no effect, 100 complete control), approx. ten days
Outline: as §2

[7] = system: corn (Zea mays); experiment: Test A pre-/postemergence plant response; settings: for Corn plant response rating: visual injury, 0 to 100 scale (0 no effect, 100 complete control), approx. ten days
Outline: as §2

[8] = system: barnyardgrass (Echinochloa crus-galli); experiment: Test A pre-/postemergence plant response; settings: for Barnyardgrass plant response rating: visual injury, 0 to 100 scale (0 no effect, 100 complete control), approx. ten days
Outline: as §2

[9] = system: giant foxtail (Setaria faberii); experiment: Test A pre-/postemergence plant response; settings: for Foxtail, Giant plant response rating: visual injury, 0 to 100 scale (0 no effect, 100 complete control), approx. ten days
Outline: as §2

[10] = system: large crabgrass (Digitaria sanguinalis); experiment: Test A pre-/postemergence plant response; settings: for Crabgrass, Large plant response rating: visual injury, 0 to 100 scale (0 no effect, 100 complete control), approx. ten days
Outline: as §2

[11] = system: morningglory (Ipomoea spp.); experiment: Test A pre-/postemergence plant response; settings: for Morningglory plant response rating: visual injury, 0 to 100 scale (0 no effect, 100 complete control), approx. ten days
Outline: as §2

[12] = system: pigweed (Amaranthus retroflexus); experiment: Test A pre-/postemergence plant response; settings: for Pigweed plant response rating: visual injury, 0 to 100 scale (0 no effect, 100 complete control), approx. ten days
Outline: as §2

[13] = 31 g ai/ha, 0 to 100 scale (0 no effect, 100 complete control)
[14] = 62 g ai/ha, scale 0 to 100 (0 no effect, 100 complete control)
[15] = 125 g ai/ha, scale 0 to 100 (0 no effect, 100 complete control)
[16] = 250 g ai/ha, scale 0 to 100 (0 no effect, 100 complete control), 13 to 15 days
[17] = Postemergence, 125 g ai/ha, 0 to 100 scale where 0 is no effect and 100 is complete control
[18] = Preemergence, 125 g ai/ha, 0 to 100 scale, 0 = no effect, 100 = complete control
[19] = Preemergence, 500 g ai/ha, 0 to 100 scale, 0 = no effect, 100 = complete control
[20] = 125 g ai/ha, scale 0 (no effect) to 100 (complete control), 13 to 15 days

COCCn1c(-c2cccc(F)c2)ncc(C(=O)C2=C(O)C3CCC(C3)C2=O)c1=O (stereo not shown) [Compound 235]
40: Plant response rating, Barley [2, 15] | Plant response rating, Wheat [5, 19]
0: Plant response rating, Barley [2, 13]
30: Plant response rating, Barley [2, 14] | Plant response rating, Canarygrass [4, 14] | Plant response rating, Canarygrass [4, 15] | Plant response rating, Canarygrass [4, 16]
98: Plant response rating, Chickweed [1, 13] | Plant response rating, Windgrass [3, 16]
70: Plant response rating, Corn [7, 19] | Plant response rating, Foxtail, Giant [9, 18]
80: Wheat plant response rating ([5]; Postemergence, 500 g ai/ha) | Plant response rating, Corn [7, 17] | Plant response rating, Morningglory [11, 18]
85: Plant response rating, Windgrass [3, 13]
100: Plant response rating, Chickweed [1, 14] | Plant response rating, Chickweed [1, 15] | Plant response rating, Chickweed [1, 16] | Plant response rating, Velvetleaf [6, 17] | Velvetleaf plant response rating ([6]; Postemergence, 500 g ai/ha) | Plant response rating, Velvetleaf [6, 18] | Plant response rating, Velvetleaf [6, 19] | Barnyardgrass plant response rating ([8]; Postemergence, 500 g ai/ha) | Plant response rating, Barnyardgrass [8, 19] | Foxtail, Giant plant response rating ([9]; Postemergence, 500 g ai/ha) | Plant response rating, Crabgrass, Large [10, 17] | Crabgrass, Large plant response rating ([10]; Postemergence, 500 g ai/ha) | Plant response rating, Crabgrass, Large [10, 18] | Plant response rating, Crabgrass, Large [10, 19] | Plant response rating, Morningglory [11, 17] | Morningglory plant response rating ([11]; Postemergence, 500 g ai/ha) | Plant response rating, Pigweed [12, 17] | Pigweed plant response rating ([12]; Postemergence, 500 g ai/ha)
50: Plant response rating, Wheat [5, 17]
10: Plant response rating, Wheat [5, 18]
20: Plant response rating, Canarygrass [4, 13] | Plant response rating, Corn [7, 18]
95: Plant response rating, Windgrass [3, 14]
90: Corn plant response rating ([7]; Postemergence, 500 g ai/ha) | Plant response rating, Barnyardgrass [8, 17] | Plant response rating, Barnyardgrass [8, 18] | Plant response rating, Foxtail, Giant [9, 17] | Plant response rating, Foxtail, Giant [9, 19] | Plant response rating, Morningglory [11, 19] | Plant response rating, Pigweed [12, 18] | Plant response rating, Pigweed [12, 19]

CCCCn1c(-c2cccc(F)c2)ncc(C(=O)C2=C(O)C3CCC(C3)C2=O)c1=O (stereo not shown) [Compound 237]
60: Plant response rating, Windgrass [3, 13]
70: Wheat plant response rating ([5]; Postemergence, 500 g ai/ha)
20: Plant response rating, Wheat [5, 17] | Plant response rating, Barnyardgrass [8, 18]
50: Plant response rating, Canarygrass [4, 20] | Plant response rating, Canarygrass [4, 16] | Plant response rating, Corn [7, 19]
30: Plant response rating, Canarygrass [4, 13] | Plant response rating, Wheat [5, 19] | Plant response rating, Pigweed [12, 18]
15: Plant response rating, Barley [2, 14]
98: Plant response rating, Chickweed [1, 14] | Plant response rating, Windgrass [3, 20]
10: Plant response rating, Morningglory [11, 18]
40: Plant response rating, Barley [2, 20] | Plant response rating, Barley [2, 16] | Plant response rating, Canarygrass [4, 14] | Plant response rating, Corn [7, 17] | Plant response rating, Foxtail, Giant [9, 18] | Plant response rating, Crabgrass, Large [10, 18]
90: Plant response rating, Chickweed [1, 13] | Plant response rating, Windgrass [3, 14] | Plant response rating, Barnyardgrass [8, 19] | Plant response rating, Foxtail, Giant [9, 17] | Plant response rating, Foxtail, Giant [9, 19] | Plant response rating, Pigweed [12, 17]
5: Plant response rating, Barley [2, 13]
0: Plant response rating, Wheat [5, 18] | Plant response rating, Corn [7, 18]
100: Plant response rating, Chickweed [1, 20] | Plant response rating, Chickweed [1, 16] | Plant response rating, Windgrass [3, 16] | Plant response rating, Velvetleaf [6, 17] | Velvetleaf plant response rating ([6]; Postemergence, 500 g ai/ha) | Plant response rating, Velvetleaf [6, 19] | Plant response rating, Barnyardgrass [8, 17] | Barnyardgrass plant response rating ([8]; Postemergence, 500 g ai/ha) | Foxtail, Giant plant response rating ([9]; Postemergence, 500 g ai/ha) | Crabgrass, Large plant response rating ([10]; Postemergence, 500 g ai/ha) | Plant response rating, Crabgrass, Large [10, 19] | Plant response rating, Morningglory [11, 17] | Morningglory plant response rating ([11]; Postemergence, 500 g ai/ha) | Pigweed plant response rating ([12]; Postemergence, 500 g ai/ha) | Plant response rating, Pigweed [12, 19]
80: Plant response rating, Velvetleaf [6, 18] | Corn plant response rating ([7]; Postemergence, 500 g ai/ha) | Plant response rating, Crabgrass, Large [10, 17] | Plant response rating, Morningglory [11, 19]
